Assay results reported in patent US7635686B2, “Therapeutically useful triethyleneglycol cholesteryl oligonucleotides” (Bioniche Life Sciences, Inc., priority 2001, dated 2009).
{TEG-Chol} = cholesteryl attached through a triethylene glycol (TEG) linker

Experiments:
[1] = tested on: Hs578T cells; assay: Cellular proliferation of Hs578T cells (Trypan blue exclusion count); type: cell-based, human; details: 53 μM
Protocol: (§1) Either 20×10^3 MDA-MB-231 (MDA-231) or Hs578T cells were plated into individual wells of 24-well plates in regular culture medium (RCM) presence or absence (control) of 53 μM (final concentration) of SEQ ID NO:3, SEQ ID NO:7, 53 μM cholesteryl-TEG phosphoramidite, or corresponding control media (regular culture medium (RCM) for SEQ ID NO:3, RCM with the same amount of water as the amount added with the SEQ ID NO:7, and RCM with the same amount of acetonitrile as the amount added with cholesteryl-TEG phosphoramidite). Cells were cultured for 72 hrs, removed with trypsin and counted with an hemocytometer using the Trypan blue exclusion technique. Results of three independent assays (mean and standard deviation (s.d.) of percentage of changes compared to controls) are shown in Table 9.

[2] = tested on: MDA-MB-231 (MDA-231) cells; assay: Treatment of pre-formed 3-dimensional MDA-231 structures on MATRIGEL; type: cell-based, human; details: MDA-231, 53 μM, repeated every 3-4 days up to 17-21 days, FIG. 4
Protocol: The MDA-MB-231 (MDA-231) cells were cultured in regular culture medium, trypsinized and counted. 100×10^3 of MDA-231 cells were plated in regular culture medium (RCM), in wells of 24-well plates coated with 350 μl of MATRIGEL®. After the formation of 3-dimensional structures during 48 hrs without any treatment, the medium was changed, and structures were exposed to a final concentration of 53 μM of SEQ ID NO:3, 53 μM of SEQ ID NO:7, 53 μM of cholesteryl-TEG phosphoramidite, RCM, or their respective control media (RCM with water, RCM with DMSO or RCM with acetonitrile). The treatments were repeated every 3-4 days until a maximum time in culture of 17-21 days. The experiment was repeated three times. Digital photographs of the cells in the 24-well plates were taken using a Nikon Coolpix 990 digital camera connected to a Nikon inverted microscope model TMS.

[3] = tested on: MCF-7 cells; assay: Treatment of pre-formed 3-dimensional MCF-7 structures on MATRIGEL; type: cell-based, human; details: MCF-7, 53 μM, repeated every 3-4 days up to 19-20 days, FIG. 3
Protocol: MCF-7 cells were cultured in regular culture medium (RCM), trypsinized and counted. 150×10^3 of MCF-7 cells, in wells of 24-well plates coated with 350 μl of MATRIGEL®. After the formation of 3-dimensional structures during 48 hrs without any treatment, the medium was changed and the structures were exposed to a final concentration of 53 μM of SEQ ID NO:3, 53 μM of SEQ ID NO:7, 53 μM of cholesteryl-TEG phosphoramidite, RCM or their respective control media (RCM with water, RCM with DMSO, or RCM with acetonitrile). The treatments were repeated every 3-4 days until a maximum time in culture of 19-20 days. The experiment was repeated three times. Digital photographs of the cells in the 24-well plates were taken using a Nikon Coolpix 990 digital camera connected to a Nikon inverted microscope model TMS.

[4] = tested on: Hs578T cells; assay: Cell cycle progression in Hs578T multicellular spheroids (PI staining); type: cell-based, human; details: 53 μM, 72 hrs, FIG. 5
Protocol: Multicellular spheroids (MS) is an example of a special in vitro assay, in which tumor cells are cultured in a 3-dimensional manner to form a “tumor-like” structure. In this system, there is a reinforcement of cell-cell interactions that mimic microenvironmental conditions of malignant cells in solid tumors in vivo. In this type of assay, no extracellular matrix components are added. Cells cultured in this MS system differ from those in 2-dimensional systems (monolayer culture conditions). Some of these differences are related to structural and functional differentiation of tumor cells, changes in the cell cycle of tumor cells, “multicellular drug resistance”, and changes in the diffusion and penetration of drugs throughout layers of tumor cells (reviewed in Green et al., Anticancer Drug Des. 14:153, 1999).
About 100×10^3 Hs578T cells per spheroid were cultured in presence of 53 μM final concentration of SEQ ID NO:3, SEQ ID NO:7, 53 μM final concentration of cholesteryl-TEG phosphoramidite (cholTEG) or corresponding control media (regular culture medium (RCM), RCM with the same amount of water (RCMW) as the amount added with the SEQ ID NO:7, and RCM with the same amount of acetonitrile (RCMA) as the amount added with cholesteryl-TEG phosphoramidite). Five spheroids per each experimental condition were cultured for 72 hrs. Afterwards, cell cycle progression was evaluated by propidium iodide (PI) staining (Calbiochem, Novabiochem Corporation, San Diego, Calif.) using a FACScalibur flow cytometer (Becton Dickinson, Franklin Lakes, N.J.). Changes in the percentage of cells in the different phases of the cell cycle were analyzed using MODFIT LT software (Verity Software House Inc).

[5] = tested on: MDA-MB-231 (MDA-231) cells; assay: Cellular proliferation of MDA-231 cells (Trypan blue exclusion count); type: cell-based, human; details: MDA-231, 53 μM
Protocol: as §1

[6] = tested on: MEG-01 cells; assay: Apoptosis by phosphatidylserine redistribution (FITC-annexin V flow cytometry) in MEG-01 cells; type: cell-based, human; details: 48 hours; for Percentage of positive cells for phosphatidylserine (cells in apoptosis) in MEG-01 cells: untreated cells 12%
Protocol: (§2) Redistribution of plasma membrane phosphatidylserine is a characteristic of cells undergoing apoptosis (Martin et al., J. Exp. Med., 182:1545, 1995). The redistribution of phosphatidylserine in the plasma membrane during apoptosis was measured by flow cytometry using FITC (fluorescein isothiocyanate)-conjugated annexin V (BD Pharmingen, San Diego, Calif.). MEG-01 cells, a human chronic myelogeneous leukemia cell line positive for the Philadelphia chromosome and having a BCR-ABL gene fusion, were incubated at 2.5×10^5 cells/ml for 48 hours with 5.3, 26.5 and 53.0 μM final concentrations of SEQ ID NO:1, SEQ ID NO:2, SEQ ID NO:5, SEQ ID NO:6 and cholesteryl-TEG phosphoramidite molecule. The percentage of cells in apoptosis after exposure to the SEQ ID NOs:1, 2, 5, 6, or cholesteryl-TEG phosphoramidite treatment is reported in Table 2. The percentage of apoptosis in untreated MEG-01 cells was 12%.

[7] = tested on: EL-4 cells; assay: Apoptosis by phosphatidylserine redistribution (annexin V flow cytometry) in EL-4 cells; type: cell-based, murine; details: 24 hours; for Percentage of positive cells for phosphatidylserine (cells in apoptosis) in EL-4 cells: untreated cells 7%
Protocol: as §2
EL-4 cells, a murine T lymphoma cell line, were incubated at 2.5×10^5 cells/ml for 24 hours with 0.53, 5.3 and 53.0 μM concentrations of SEQ ID NO:3, SEQ ID NO:7 or cholesteryl-TEG phosphoramidite. The percentage of cells in apoptosis after exposure to SEQ ID NO:3, SEQ ID NO:7 or cholesteryl-TEG phosphoramidite treatment is reported in Table 3. The percentage of apoptosis in untreated EL-4 cells was 7%.

[8] = tested on: MDA-MB-231 (MDA-231) cells; assay: MATRIGEL outgrowth after 1 hr pre-incubation, MDA-231; type: cell-based, human; details: MDA-231, 53 μM pre-incubation 1 hr, 3 days on MATRIGEL, FIG. 1 and FIG. 2
Protocol: (§3) Various in vitro and in vivo assays may be used to evaluate the influence of the extracellular microenvironment on behavior of normal cells and tumor cells. Such assays may employ MATRIGEL® (Becton Dickinson, Franklin Lakes, N.J.), which is a solubilized basement membrane preparation extracted from the Engelbreth-Holm-Swarm murine sarcoma.
(§4) MCF-7, MDA-MB-231 (MDA-231), Hs578T and Mpanc-96 cells were cultured separately in regular culture medium, trypsinized, and counted. 100×10^3 of MDA-231 cells, 100×10^3 of Hs578T cells, 150×10^3 of MCF-7 cells and 150×10^3 of Mpanc-96 cells were separately pre-incubated for 1 hr at 37° C. in a final concentration of 53 μM of SEQ ID NO:1, 53 μM of SEQ ID NO:5 or RCM, and plated on top of MATRIGEL®-coated plates (MATRIGEL® Basement membrane matrix coated cellware 24-well plate,) for 3 days. Plates were fixed with 10% formalin. Digital photographs of the cells in the 24-well plates were taken using a Nikon Coolpix 990 digital camera (Nikon Corporation, Tokyo, Japan) connected to a Nikon inverted microscope model TMS.
(§5) MDA-MB-231 (MDA-231) and Hs578T were cultured in regular culture medium, trypsinized and counted. 100×10^3 of MDA-MB-231 cells or 100×10^3 of Hs578T cells, were separately pre-incubated for 1 hr at 37° C. in a final concentration of 53 μM of SEQ ID NO:4, 53 μM of SEQ ID NO:8 or RCM and plated on MATRIGEL®-coated plates for 3 days. Plates were fixed with 10% formalin. Digital photographs of the cells in the 24-well plates were taken using a Nikon Coolpix 990 digital camera (Nikon Corporation, Tokyo, Japan) connected to a Nikon inverted microscope model TMS.

[9] = tested on: HIG-82 cells; assay: HIG-82 synovial cell proliferation (MTT reduction); type: cell-based, rabbit; details: 53 μM, 48 hours; for Inhibition of HIG-82 cell proliferation, inhibition (%): MTT
Protocol: Adherent HIG-82 cells, a synovial cell line, were incubated at 10×10^5 cells/ml for 48 hours with 53 μM (final concentration) of SEQ ID NO:2, SEQ ID NO:3, SEQ ID NO:4, SEQ ID NO:6, SEQ ID NO:7, or SEQ ID NO:8. Cellular proliferation was measured using dimethylthiazol-diphenyl-tetrazolium (MTT) reduction (Mosman et al., J. Immunol. Methods 65:55, 1983). MTT was measured at a wavelength of 570 nm using a multiple spectrophotometer reader (ELX800, Bio-TEK, Instruments Inc., Winooski, Vt.). The percentage of inhibition, calculated as […]

[10] = tested on: Hs578T cells; assay: MATRIGEL outgrowth after 1 hr pre-incubation, Hs578T; type: cell-based, human; details: 53 μM pre-incubation 1 hr, 3 days on MATRIGEL, FIG. 1 and FIG. 2
Protocol: as §3, §4, §5

[11] = cultured for 3 days, + stimulation, − inhibition, three independent assays
[12] = translocation of phosphatidylserine, up to 53.0 μM

| Compound | Effect on cellular proliferation (in words) ([1]; 72 hrs) | Percentage of changes in cellular proliferation compared to controls (mean ± s.d.) [1, 11] | Effect on pre-formed 3-dimensional structures on MATRIGEL [2] | Effect on pre-formed 3-dimensional structures on MATRIGEL [3] | Cell cycle progression in multicellular spheroids [4] | Effect on cellular proliferation (in words) ([5]; 72 hrs) | Percentage of changes in cellular proliferation compared to controls (mean ± s.d.) [5, 11] | Percentage of positive cells for phosphatidylserine (cells in apoptosis) in MEG-01 cells ([6]; 5.3 μM) | Percentage of positive cells for phosphatidylserine (cells in apoptosis) in MEG-01 cells ([6]; 26.5 μM) | Percentage of positive cells for phosphatidylserine (cells in apoptosis) in MEG-01 cells ([6]; 53.0 μM) | Induction of apoptosis in MEG-01 cells (in words) [6, 12] | Percentage of positive cells for phosphatidylserine (cells in apoptosis) in EL-4 cells ([7]; 0.53 μM) | Percentage of positive cells for phosphatidylserine (cells in apoptosis) in EL-4 cells ([7]; 5.3 μM) | Percentage of positive cells for phosphatidylserine (cells in apoptosis) in EL-4 cells ([7]; 53.0 μM) | Induction of apoptosis in EL-4 cells (in words) [7, 12] | Formation of 3-dimensional structures / cell morphology on MATRIGEL [8] | Inhibition of proliferation of synovial HIG-82 cells (in words) [9] | Inhibition of HIG-82 cell proliferation, inhibition (%) [9] | Formation of 3-dimensional structures / cell morphology on MATRIGEL [10] |
| --- | --- | --- | --- | --- | --- | --- | --- | --- | --- | --- | --- | --- | --- | --- | --- | --- | --- | --- | --- |
| COc1ccc(C(OCC(COCCOCCOCCOCCCNC(=O)O[C@H]2CC[C@@]3(C)C(=CC[C@H]4[C@@H]5CC[C@H]([C@H](C)CCCC(C)C)[C@@]5(C)CC[C@@H]43)C2)OP(OCCC#N)N(C(C)C)C(C)C)(c2ccccc2)c2ccc(OC)cc2)cc1 (some centres unmarked) [cholesteryl-TEG phosphoramidite] | did not significantly affect cellular proliferation | +13 ± 9.2% | did not affect the 3-dimensional structures | did not affect the 3-dimensional structures | did not significantly modify cell cycle progression | did not significantly affect cellular proliferation | −2.3 ± 15.9% | 12% | 12% | 12% | inactive | 7% | 7% | 7% | neither SEQ ID NO:3 nor cholesteryl-TEG phosphoramidite caused apoptosis | – | – | – | – |
| 5′OH-GTG(TEG-cholesteryl) 3′ (3' {TEG-Chol}, sugars by position and backbone not given here) [SEQ ID NO:8, 5′-OH, 3′-TEG cholesteryl synthetic oligonucleotide] | – | – | – | – | – | – | – | – | – | – | – | – | – | – | – | disrupted the growth pattern | capacity to inhibit the cellular proliferation | 64% | disrupted the growth pattern |
| 5′ OH-GTG-OH 3′ (listed as DNA, chemistry not fully specified) [SEQ ID NO:4] | – | – | – | – | – | – | – | – | – | – | – | – | – | – | – | did not change the cellular morphology | did not inhibit proliferation | −7% | did not change the cellular morphology |
